Assay results published in publication PMC4327562, “Emergence of terpene cyclization in Artemisia annua” (Nature Communications, 2015).

Experiments:
[1] = target: T1, (E)-β-farnesene synthase (BFS), A. annua BFS (Artemisia annua, UniProt Q9FXY7); details: 5 mM MgCl2, pH 7.0, 30 °C, inorganic pyrophosphatase coupled
T1 construct: gene CASC125
From the text: (§1) malachite green assay, steady-state kinetics on (E)-β-farnesene synthase (BFS), A. annua BFS

[2] = target: T2, (E)-β-farnesene synthase (BFS), A. annua BFS (Artemisia annua, UniProt Q9FXY7, Y423L/V470G, form not given); details: 5 mM MgCl2, pH 7.0, 30 °C, inorganic pyrophosphatase coupled
T2 construct: gene CASC125
T2 sequence (Q9FXY7 whole entry Y423L/V470G, form open): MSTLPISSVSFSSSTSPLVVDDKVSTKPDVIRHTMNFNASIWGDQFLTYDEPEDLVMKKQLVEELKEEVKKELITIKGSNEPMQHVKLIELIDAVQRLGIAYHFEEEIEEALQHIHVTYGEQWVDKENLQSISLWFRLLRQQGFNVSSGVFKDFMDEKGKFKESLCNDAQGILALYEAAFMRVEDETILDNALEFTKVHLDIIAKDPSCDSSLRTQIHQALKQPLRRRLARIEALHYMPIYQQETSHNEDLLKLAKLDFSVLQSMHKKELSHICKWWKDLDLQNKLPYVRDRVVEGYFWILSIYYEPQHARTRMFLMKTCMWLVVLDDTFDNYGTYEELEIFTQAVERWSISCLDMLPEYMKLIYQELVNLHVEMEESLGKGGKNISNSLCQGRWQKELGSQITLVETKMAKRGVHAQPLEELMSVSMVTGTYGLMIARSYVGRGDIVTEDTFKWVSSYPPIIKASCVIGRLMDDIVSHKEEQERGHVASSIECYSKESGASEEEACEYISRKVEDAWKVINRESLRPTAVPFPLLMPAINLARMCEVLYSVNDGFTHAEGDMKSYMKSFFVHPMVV
From the text: as §1

[3] = target: T3, (E)-β-farnesene synthase (BFS), A. annua BFS (Artemisia annua, UniProt Q9FXY7, Y305L/Y433A, form not given); details: 5 mM MgCl2, pH 7.0, 30 °C, inorganic pyrophosphatase coupled
T3 construct: gene CASC125
T3 sequence (Q9FXY7 whole entry Y305L/Y433A, form open): as the sequence (Q9FXY7 whole entry Y423L/V470G, form open) above, with Y305L, L423Y, Y433A, G470V counted along it
From the text: as §1

[4] = target: T4, (E)-β-farnesene synthase (BFS), A. annua BFS (Artemisia annua, UniProt Q9FXY7, Y433A/V470G, form not given); details: 5 mM MgCl2, pH 7.0, 30 °C, inorganic pyrophosphatase coupled
T4 construct: gene CASC125
T4 sequence (Q9FXY7 whole entry Y433A/V470G, form open): as the sequence (Q9FXY7 whole entry Y423L/V470G, form open) above, with L423Y, Y433A counted along it
From the text: as §1

[5] = target: T5, amorpha-4,11-diene synthase (ADS) (Artemisia annua, UniProt Q9AR04); assay: GC-MS product analysis and malachite green assay; assay type: biochemical; details: 5 mM MgCl2, pH 7.0; numbering likely that of A. annua BFS
T5 construct: gene AMS1; recombinant
T5 sequence (Q9AR04 whole entry): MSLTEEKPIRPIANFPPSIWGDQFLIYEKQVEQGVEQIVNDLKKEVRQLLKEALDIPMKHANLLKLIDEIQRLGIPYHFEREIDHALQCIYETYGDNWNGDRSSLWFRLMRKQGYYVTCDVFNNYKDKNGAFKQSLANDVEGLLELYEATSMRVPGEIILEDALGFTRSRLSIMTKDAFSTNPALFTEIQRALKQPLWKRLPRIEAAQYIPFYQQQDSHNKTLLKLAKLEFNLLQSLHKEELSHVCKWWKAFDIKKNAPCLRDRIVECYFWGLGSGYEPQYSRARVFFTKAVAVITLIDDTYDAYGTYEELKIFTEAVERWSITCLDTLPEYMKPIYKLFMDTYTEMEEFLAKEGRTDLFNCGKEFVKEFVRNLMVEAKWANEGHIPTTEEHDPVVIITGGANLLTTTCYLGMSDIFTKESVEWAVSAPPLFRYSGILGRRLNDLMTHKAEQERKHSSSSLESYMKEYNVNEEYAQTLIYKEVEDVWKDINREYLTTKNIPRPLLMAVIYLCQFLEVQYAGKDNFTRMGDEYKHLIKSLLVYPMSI

T1 sequence (Q9FXY7 whole entry): as the sequence (Q9FXY7 whole entry Y423L/V470G, form open) above, with L423Y, G470V counted along it

Km [1] [µM]	Km [2] [µM]	Km [3] [µM]	Km [4] [µM]	Structure (SMILES)	GC-MS product analysis and malachite green assay [5]
10.6	5.99	5.22	4.27	CC(C)=CCC/C(C)=C/CC/C(C)=C/CO[P@@](=O)(O)OP(=O)(O)O (stereo in doubt) [FPP, farnesyl pyrophosphate]	–
–	–	–	–	CC(C)=CCC/C(C)=C/CC/C(C)=C/COP(=O)(O)OP(=O)(O)O [FPP, farnesyl pyrophosphate]	incorporating the L402Y mutation into ADS induced a broadening of cyclization products
